Experimental data published in the NIST ThermoML archive (doi:10.1021/je9006713).
Where “and” joins values, the source holds several entries; their conditions need not be identical. Equal entries are not always repeated. Numbers after ± are expanded uncertainties.

Experiment: mn = molality of the nth substance listed, in mol/kg
Settings: Liquid, glass piezometer

[I-].[NH4+] [ammonium iodide] + N
mass density
Settings | 303.15 K | 313.15 K | 323.15 K | 333.15 K | 343.15 K | 353.15 K | 363.15 K | 373.15 K
10000 kPa, m1 = 0.867 | 698.2 ± 2.8 kg/m3 | 683.7 ± 2.7 kg/m3 | 668.4 ± 2.7 kg/m3 | 650.5 ± 2.6 kg/m3 | 632.1 ± 2.5 kg/m3 | 615.5 ± 2.5 kg/m3 | 593.9 ± 2.4 kg/m3 | 579.5 ± 2.3 kg/m3
10000 kPa, m1 = 1.827 | 777.3 ± 3.1 kg/m3 | 762.9 ± 3.1 kg/m3 | 748.7 ± 3 kg/m3 | 732.5 ± 2.9 kg/m3 | 716.4 ± 2.9 kg/m3 | 700.1 ± 2.8 kg/m3 | 680.1 ± 2.7 kg/m3 | 666.9 ± 2.7 kg/m3
10000 kPa, m1 = 3.103 | 870.7 ± 3.5 kg/m3 | 857.4 ± 3.4 kg/m3 | 844.3 ± 3.4 kg/m3 | 829.3 ± 3.3 kg/m3 | 814.6 ± 3.3 kg/m3 | 797.7 ± 3.2 kg/m3 | 780.9 ± 3.1 kg/m3 | 768.1 ± 3.1 kg/m3
10000 kPa, m1 = 4.856 | 988.2 ± 4 kg/m3 | 974.7 ± 3.9 kg/m3 | 960.5 ± 3.9 kg/m3 | 947.6 ± 3.8 kg/m3 | 933.1 ± 3.7 kg/m3 | 917.8 ± 3.7 kg/m3 | 903.2 ± 3.6 kg/m3 | 889.8 ± 3.6 kg/m3
10000 kPa, m1 = 7.271 | 1109 ± 4.4 kg/m3 | 1097.5 ± 4.4 kg/m3 | 1085.9 ± 4.4 kg/m3 | 1075.9 ± 4.3 kg/m3 | 1062.2 ± 4.3 kg/m3 | 1049.9 ± 4.2 kg/m3 | 1037.1 ± 4.2 kg/m3 | 1026.1 ± 4.1 kg/m3
10000 kPa, m1 = 11.18 | 1234 ± 4.9 kg/m3 | 1222.9 ± 4.9 kg/m3 | 1212.3 ± 4.9 kg/m3 | 1199.8 ± 4.8 kg/m3 | 1188.9 ± 4.8 kg/m3 | 1177.9 ± 4.7 kg/m3 | 1166.7 ± 4.7 kg/m3 | 1155.3 ± 4.6 kg/m3
10000 kPa, m1 = 16.46 | 1329.5 ± 5.3 kg/m3 | 1322 ± 5.3 kg/m3 | 1312 ± 5.3 kg/m3 | 1302.5 ± 5.2 kg/m3 | 1293.1 ± 5.2 kg/m3 | 1284.9 ± 5.2 kg/m3 | 1274.7 ± 5.1 kg/m3 | 1265.9 ± 5.1 kg/m3
15000 kPa, m1 = 0.867 | 702.3 ± 2.8 kg/m3 | 688 ± 2.8 kg/m3 | 672.8 ± 2.7 kg/m3 | 655.7 ± 2.6 kg/m3 | 638 ± 2.6 kg/m3 | 621.8 ± 2.5 kg/m3 | 601.7 ± 2.4 kg/m3 | 587.3 ± 2.4 kg/m3
15000 kPa, m1 = 1.827 | 780.7 ± 3.1 kg/m3 | 766.9 ± 3.1 kg/m3 | 752.7 ± 3 kg/m3 | 737 ± 3 kg/m3 | 721.7 ± 2.9 kg/m3 | 705.7 ± 2.8 kg/m3 | 687.2 ± 2.8 kg/m3 | 674 ± 2.7 kg/m3
15000 kPa, m1 = 3.103 | 874.3 ± 3.5 kg/m3 | 861.1 ± 3.5 kg/m3 | 848.1 ± 3.4 kg/m3 | 833.5 ± 3.3 kg/m3 | 818.9 ± 3.3 kg/m3 | 803 ± 3.2 kg/m3 | 786.3 ± 3.2 kg/m3 | 773.7 ± 3.1 kg/m3
15000 kPa, m1 = 4.856 | 992.3 ± 4 kg/m3 | 978.5 ± 3.9 kg/m3 | 964.8 ± 3.9 kg/m3 | 951.7 ± 3.8 kg/m3 | 937.1 ± 3.8 kg/m3 | 922.1 ± 3.7 kg/m3 | 907.9 ± 3.6 kg/m3 | 894.4 ± 3.6 kg/m3
15000 kPa, m1 = 7.271 | 1112.4 ± 4.5 kg/m3 | 1100.9 ± 4.4 kg/m3 | 1089.2 ± 4.4 kg/m3 | 1078.8 ± 4.3 kg/m3 | 1065.7 ± 4.3 kg/m3 | 1053.5 ± 4.2 kg/m3 | 1040.7 ± 4.2 kg/m3 | 1029.7 ± 4.1 kg/m3
15000 kPa, m1 = 11.18 | 1236.7 ± 5 kg/m3 | 1225.9 ± 4.9 kg/m3 | 1214.9 ± 4.9 kg/m3 | 1202.6 ± 4.8 kg/m3 | 1192.1 ± 4.8 kg/m3 | 1181 ± 4.7 kg/m3 | 1169.8 ± 4.7 kg/m3 | 1158.5 ± 4.6 kg/m3
15000 kPa, m1 = 16.46 | 1332.2 ± 5.3 kg/m3 | 1323.9 ± 5.3 kg/m3 | 1314.6 ± 5.3 kg/m3 | 1305 ± 5.2 kg/m3 | 1296 ± 5.2 kg/m3 | 1287.4 ± 5.2 kg/m3 | 1277.2 ± 5.1 kg/m3 | 1268.6 ± 5.1 kg/m3
20000 kPa, m1 = 0.867 | 706.3 ± 2.8 kg/m3 | 691.9 ± 2.8 kg/m3 | 677 ± 2.7 kg/m3 | 660.8 ± 2.6 kg/m3 | 643.7 ± 2.6 kg/m3 | 627.9 ± 2.5 kg/m3 | 609.6 ± 2.4 kg/m3 | 595.1 ± 2.4 kg/m3
20000 kPa, m1 = 1.827 | 783.9 ± 3.1 kg/m3 | 770.7 ± 3.1 kg/m3 | 756.8 ± 3 kg/m3 | 741.3 ± 3 kg/m3 | 726.9 ± 2.9 kg/m3 | 711.2 ± 2.8 kg/m3 | 694.2 ± 2.8 kg/m3 | 681 ± 2.7 kg/m3
20000 kPa, m1 = 3.103 | 877.8 ± 3.5 kg/m3 | 864.6 ± 3.5 kg/m3 | 852 ± 3.4 kg/m3 | 837.7 ± 3.4 kg/m3 | 823.2 ± 3.3 kg/m3 | 808.3 ± 3.2 kg/m3 | 791.7 ± 3.2 kg/m3 | 779.4 ± 3.1 kg/m3
20000 kPa, m1 = 4.856 | 996.2 ± 4 kg/m3 | 982.3 ± 3.9 kg/m3 | 969 ± 3.9 kg/m3 | 955.5 ± 3.8 kg/m3 | 941.1 ± 3.8 kg/m3 | 926.5 ± 3.7 kg/m3 | 912.5 ± 3.7 kg/m3 | 898.9 ± 3.6 kg/m3
20000 kPa, m1 = 7.271 | 1115.2 ± 4.5 kg/m3 | 1103.9 ± 4.4 kg/m3 | 1092.5 ± 4.4 kg/m3 | 1081.7 ± 4.3 kg/m3 | 1069.2 ± 4.3 kg/m3 | 1056.9 ± 4.2 kg/m3 | 1044.1 ± 4.2 kg/m3 | 1033.2 ± 4.1 kg/m3
20000 kPa, m1 = 11.18 | 1238.9 ± 5 kg/m3 | 1228.8 ± 4.9 kg/m3 | 1217 ± 4.9 kg/m3 | 1205.5 ± 4.8 kg/m3 | 1194.9 ± 4.8 kg/m3 | 1183.7 ± 4.7 kg/m3 | 1172.8 ± 4.7 kg/m3 | 1161.6 ± 4.7 kg/m3
20000 kPa, m1 = 16.46 | 1334.5 ± 5.3 kg/m3 | 1326.5 ± 5.3 kg/m3 | 1316.8 ± 5.3 kg/m3 | 1307.6 ± 5.2 kg/m3 | 1298.5 ± 5.2 kg/m3 | 1289.9 ± 5.2 kg/m3 | 1279.6 ± 5.1 kg/m3 | 1271 ± 5.1 kg/m3
25000 kPa, m1 = 0.867 | 710.1 ± 2.8 kg/m3 | 695.7 ± 2.8 kg/m3 | 681.3 ± 2.7 kg/m3 | 666 ± 2.7 kg/m3 | 649.4 ± 2.6 kg/m3 | 634.3 ± 2.5 kg/m3 | 617.4 ± 2.5 kg/m3 | 603.1 ± 2.4 kg/m3
25000 kPa, m1 = 1.827 | 787.4 ± 3.2 kg/m3 | 774.7 ± 3.1 kg/m3 | 760.7 ± 3 kg/m3 | 745.9 ± 3 kg/m3 | 731.9 ± 2.9 kg/m3 | 716.6 ± 2.9 kg/m3 | 701.2 ± 2.8 kg/m3 | 687.8 ± 2.8 kg/m3
25000 kPa, m1 = 3.103 | 881.1 ± 3.5 kg/m3 | 867.8 ± 3.5 kg/m3 | 855.9 ± 3.4 kg/m3 | 841.8 ± 3.4 kg/m3 | 827.6 ± 3.3 kg/m3 | 813.5 ± 3.3 kg/m3 | 797.3 ± 3.2 kg/m3 | 785.2 ± 3.1 kg/m3
25000 kPa, m1 = 4.856 | 999.8 ± 4 kg/m3 | 986.1 ± 4 kg/m3 | 973.3 ± 3.9 kg/m3 | 959.4 ± 3.8 kg/m3 | 945.1 ± 3.8 kg/m3 | 931 ± 3.7 kg/m3 | 916.8 ± 3.7 kg/m3 | 903.4 ± 3.6 kg/m3
25000 kPa, m1 = 7.271 | 1118 ± 4.5 kg/m3 | 1107.3 ± 4.4 kg/m3 | 1095.5 ± 4.4 kg/m3 | 1084.6 ± 4.3 kg/m3 | 1072.4 ± 4.3 kg/m3 | 1060.4 ± 4.3 kg/m3 | 1047.4 ± 4.2 kg/m3 | 1036.7 ± 4.2 kg/m3
25000 kPa, m1 = 11.18 | 1241.2 ± 5 kg/m3 | 1231.4 ± 4.9 kg/m3 | 1219.2 ± 4.9 kg/m3 | 1208 ± 4.8 kg/m3 | 1197.3 ± 4.8 kg/m3 | 1186.5 ± 4.8 kg/m3 | 1175.5 ± 4.7 kg/m3 | 1164.3 ± 4.7 kg/m3
25000 kPa, m1 = 16.46 | 1336.8 ± 5.4 kg/m3 | 1329.2 ± 5.3 kg/m3 | 1319.4 ± 5.3 kg/m3 | 1310.2 ± 5.3 kg/m3 | 1301.4 ± 5.2 kg/m3 | 1292.4 ± 5.2 kg/m3 | 1281.7 ± 5.1 kg/m3 | 1273.4 ± 5.1 kg/m3
30000 kPa, m1 = 0.867 | 713.7 ± 2.9 kg/m3 | 699.6 ± 2.8 kg/m3 | 685.5 ± 2.7 kg/m3 | 671.3 ± 2.7 kg/m3 | 654.8 ± 2.6 kg/m3 | 640.4 ± 2.6 kg/m3 | 625.2 ± 2.5 kg/m3 | 610.8 ± 2.4 kg/m3
30000 kPa, m1 = 1.827 | 791 ± 3.2 kg/m3 | 778.6 ± 3.1 kg/m3 | 764.7 ± 3.1 kg/m3 | 749.9 ± 3 kg/m3 | 737 ± 3 kg/m3 | 721.9 ± 2.9 kg/m3 | 708.4 ± 2.8 kg/m3 | 694.7 ± 2.8 kg/m3
30000 kPa, m1 = 3.103 | 884.5 ± 3.5 kg/m3 | 871.3 ± 3.5 kg/m3 | 859.8 ± 3.4 kg/m3 | 845.6 ± 3.4 kg/m3 | 831.8 ± 3.3 kg/m3 | 818.7 ± 3.3 kg/m3 | 802.8 ± 3.2 kg/m3 | 790.9 ± 3.2 kg/m3
30000 kPa, m1 = 4.856 | 1003.5 ± 4 kg/m3 | 989.9 ± 4 kg/m3 | 977.3 ± 3.9 kg/m3 | 963.1 ± 3.9 kg/m3 | 949.2 ± 3.8 kg/m3 | 935.2 ± 3.8 kg/m3 | 921.1 ± 3.7 kg/m3 | 907.8 ± 3.6 kg/m3
30000 kPa, m1 = 7.271 | 1120.4 ± 4.5 kg/m3 | 1110.4 ± 4.5 kg/m3 | 1098.5 ± 4.4 kg/m3 | 1087.3 ± 4.4 kg/m3 | 1075.2 ± 4.3 kg/m3 | 1063.5 ± 4.3 kg/m3 | 1050.5 ± 4.2 kg/m3 | 1039.9 ± 4.2 kg/m3
30000 kPa, m1 = 11.18 | 1243.5 ± 5 kg/m3 | 1233.7 ± 4.9 kg/m3 | 1221.4 ± 4.9 kg/m3 | 1210.2 ± 4.8 kg/m3 | 1199.8 ± 4.8 kg/m3 | 1188.9 ± 4.8 kg/m3 | 1177.9 ± 4.7 kg/m3 | 1166.8 ± 4.7 kg/m3
30000 kPa, m1 = 16.46 | – | 1338.7 ± 5.4 kg/m3 and 1331.4 ± 5.3 kg/m3 | 1321.6 ± 5.3 kg/m3 | 1312.4 ± 5.3 kg/m3 | 1303.9 ± 5.2 kg/m3 | 1294.5 ± 5.2 kg/m3 | 1283.9 ± 5.1 kg/m3 | 1275.8 ± 5.1 kg/m3
